Data reported in PMC8170132, “Kinetics of Abacavir-Induced Remodelling of the Major Histocompatibility Complex Class I Peptide Repertoire” (Frontiers in Immunology, 2021).

Legend:
[1] = molecular target: T1, HLA-B*57:01 (Homo sapiens, UniProt P01889, D201E/D98Y/E176V/E187L/E204Q/E69M/E70A/G107R/I90N/K202T/L105A/L119I/N104I/N87E/Q89R/Q94S/R106L/R155S/R180L/R86G/S101N/S121V/S35A/S48A/T118I/V36M/Y140S/Y91M); assay: LC-MRM-MS quantitation of HLA ligands and co-purified abacavir from abacavir treated C1R.B*57:01 cells; type: cell-based; conditions: C1R.B*57:01, 35 µM abacavir
[2] = tested on: C1R.B*57:01 cells; assay: Cellular proteome comparison by label free quantitation LC-MS/MS; type: cell-based, human; conditions: 35 µM abacavir, 48 h, 2,306 proteins, 5% FDR
[3] = tested on: abacavir responsive CD8+ T cells; assay: Intracellular cytokine staining of abacavir responsive CD8+ T cells stimulated with abacavir treated C1R.B*57:01; type: cell-based, human; conditions: 35 µM abacavir 0-30 h, three T cell lines
Protocol: Stimulator PBMCs were subsequently added to responder PBMC at a 2:1 responder:stimulator ratio and the final volume of culture made up to 2 ml with RF10. Cells were incubated at 37°C, 5% CO2 and fed with fresh media as required to sustain cell outgrowth. On day 5 of culture, cell media were supplemented with rhIL-2 (Cetus) at 20 U/ml and maintained at this concentration thereafter. […] C1R.B*57:01 were mixed with 1 × 10^5 T cells at a 1:2 ratio in a volume of 200 μl fresh RH10. […] Sigma-Aldrich) was added to a final concentration of 10 μg/ml and incubated a further 4 h. Cells were stained with anti-CD4-PE [clone RPA-T4, Becton Dickinson (BD) Biosciences, USA] and anti-CD8-PerCP-Cy™5.5 (clone SK1, BD Biosciences, 25 min, 4°C), fixed with 1% PFA/PBS (20 min, room temperature), washed in PBS, then permeabilised with 0.3% saponin (Sigma-Aldrich) in PBS containing anti-Interferon-γ (IFNγ)-PE-Cy™7 (clone B27, BD Biosciences) and anti-tumour necrosis factor (TNF)-PE-V450 (clone Mab11, BD Biosciences), and acquired by flow cytometry using an LSR II flow cytometer and BD […]™ software (BD). The percentage of CD8^+ T cells producing IFNγ and TNF was determined via analysis using FlowJo software (BD).

[4] = molecular target: T1, HLA-B*57:01; conditions: 60 µM abacavir
[5] = molecular target: T1, HLA-B*57:01; conditions: 721.220.B*57:01 cells, 60 µM abacavir, 37 and 50°C vs 4°C
[6] = molecular target: T1, HLA-B*57:01; conditions: 721.220.B*57:01 +/- tapasin, 60 µM abacavir 20 hrs, Brefeldin A 0-6 hrs
[7] = molecular target: T1, HLA-B*57:01; conditions: ref [20]–[22]; cited from earlier work

Nc1nc(NC2CC2)c2ncn([C@H]3C=C[C@@H](CO)C3)c2n1 [abacavir]
Time of abacavir treatment after which changes in the immunopeptidome were evident [1]: 2 h
Co-purification of HLA-B*57:01-bound abacavir over the time course ([1]; 0-16 h): increasing amounts
Change in protein expression of the cellular proteome [2]: no protein showed significant changes in expression
Immunogenicity of abacavir treated antigen presenting cells (IFNγ and/or TNF production by CD8+ T cells) [3]: increase in antigen presenting cell immunogenicity was observed over the first 12 h
Effect on HLA-B*57:01 maturation (Endo-H resistance), tapasin-reconstituted ([4]; 721.220.B*57:01.tapasin cells): unaffected
Effect on HLA-B*57:01 maturation (Endo-H resistance), tapasin absent ([4]; 721.220.B*57:01 cells): did not significantly alter this pattern of biogenesis
Effect on thermal stability profile of HLA-B*57:01, tapasin absent [5]: no significant impact on the thermal stability profile
Effect on expression level and stability of cell surface HLA-B*57:01 [6]: did not significantly alter either the expression level or the stability
Odds ratio of hypersensitivity reaction with HLA-B*57:01 [7]: > 500
